Measured values taken from ChEMBL document CHEMBL3091356, “Salen and tetrahydrosalen derivatives act as effective inhibitors of the tumor-associated carbonic anhydrase XII--a new scaffold for designing isoform-selective inhibitors” (Bioorg Med Chem Lett, 2013).

Legend:
Carbonic anhydrase 1 = Carbonic anhydrase 1 (Homo sapiens, UniProt P00915); experiment: Inhibition of human recombinant carbonic anhydrase 1-mediated CO2 hydration preincubated for 15 mins by stopped-flow assay
Carbonic anhydrase 9 = Carbonic anhydrase 9 (Homo sapiens, UniProt Q16790)
Description: Inhibition of human recombinant carbonic anhydrase 9-mediated CO2 hydration preincubated for 15 mins by stopped-flow assay

Carbonic anhydrase 2 = Carbonic anhydrase 2 (Homo sapiens, UniProt P00918); experiment: Inhibition of human recombinant carbonic anhydrase 2-mediated CO2 hydration preincubated for 15 mins by stopped-flow assay
Carbonic anhydrase 12 = Carbonic anhydrase 12 (Homo sapiens, UniProt O43570); experiment: Inhibition of human recombinant carbonic anhydrase 12-mediated CO2 hydration preincubated for 15 mins by stopped-flow assay
Chain of Carbonic anhydrase 12 (O43570 whole entry): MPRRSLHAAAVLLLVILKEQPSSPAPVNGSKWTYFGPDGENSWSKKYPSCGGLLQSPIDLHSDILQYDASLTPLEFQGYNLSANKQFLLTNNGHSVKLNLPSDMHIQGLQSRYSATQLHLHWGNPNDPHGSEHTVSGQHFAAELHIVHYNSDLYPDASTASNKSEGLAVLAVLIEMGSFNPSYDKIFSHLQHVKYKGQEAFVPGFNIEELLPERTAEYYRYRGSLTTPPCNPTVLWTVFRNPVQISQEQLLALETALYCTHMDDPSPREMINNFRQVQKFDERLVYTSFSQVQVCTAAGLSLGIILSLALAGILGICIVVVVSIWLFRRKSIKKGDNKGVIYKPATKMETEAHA

Chain of Carbonic anhydrase 1 (P00915 whole entry): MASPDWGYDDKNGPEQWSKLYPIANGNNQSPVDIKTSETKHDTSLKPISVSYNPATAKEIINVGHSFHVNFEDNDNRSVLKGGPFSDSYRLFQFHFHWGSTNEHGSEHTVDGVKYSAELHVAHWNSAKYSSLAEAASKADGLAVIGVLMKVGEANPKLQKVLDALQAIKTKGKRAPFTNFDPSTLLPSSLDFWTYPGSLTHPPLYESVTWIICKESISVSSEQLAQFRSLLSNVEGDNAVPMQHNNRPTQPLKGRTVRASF

Ki (Carbonic anhydrase 1) [µM]	Ki (Carbonic anhydrase 9) [µM]	Ki (Carbonic anhydrase 2) [µM]	Ki (Carbonic anhydrase 12) [µM]	SMILES
> 100	15.7	–	–	Oc1ccccc1/C=N/CCC/N=C/c1ccccc1O
> 100	–	–	–	Oc1ccccc1/C=N/CCCC/N=C/c1ccccc1O
> 100	2.45	–	–	Oc1ccccc1/C=N/c1ccccc1/N=C/c1ccccc1O
> 100	> 100	1.72	0.28	Oc1ccccc1/C=N/CC/N=C/c1ccccc1O
> 100	4.47	–	–	Oc1ccccc1/C=N/CCCCC/N=C/c1ccccc1O
> 100	4.35	3.6	0.43	Oc1ccccc1/C=N/CCCCCC/N=C/c1ccccc1O
> 100	> 100	> 100	–	O=[N+]([O-])c1ccccc1/C=N/CCCCCC/N=C/c1ccccc1[N+](=O)[O-]

Second part, the compound before the results:

SMILES	Ki (Carbonic anhydrase 1) [µM]	Ki (Carbonic anhydrase 9) [µM]	Ki (Carbonic anhydrase 2) [µM]	Ki (Carbonic anhydrase 12) [µM]
Oc1ccccc1CNCCCCNCc1ccccc1O	> 100	4.37	–	–
COc1cccc(/C=N/CC/N=C/c2cccc(OC)c2O)c1O	> 100	> 100	> 100	–
Oc1ccccc1CNCCNCc1ccccc1O	> 100	> 100	–	–
Oc1ccccc1CNCCCNCc1ccccc1O	> 100	3.37	0.39	0.04
Oc1ccccc1CNCCCCCCNCc1ccccc1O	> 100	2.51	–	–
Oc1ccccc1CNCCCCCNCc1ccccc1O	> 100	4.19	–	–
Oc1ccccc1CNc1ccccc1NCc1ccccc1O	> 100	0.22	–	–
